Entries after “also recorded” stand apart in the source; their conditions may differ. Structures can show the parent of a compound that is named as a salt.
How the values were obtained:
SH-SY5Y cells = test: Neurite outgrowth (differentiation) in SH-SY5Y cells, Tubulin Tracker imaging; type: cell-based, human; details: for neurite outgrowth or differentiation: FIG. 5
Method: Transferrin is utilized in cell culture and in-vivo to deliver iron as a nutrient to cells. This is typically accomplished through the actions of holo-transferrin (HoloTf) binding to, and endocytosis by, its cognate receptor CD71, the transferrin receptor 1 (TfR1). Transferrin is typically believed to provide cells with iron as a means to promote and sustain metabolic activity. […] Induction of neuronal differentiation was assessed by morphological parameters of neurite formation (a key element typically used as a marker of neuronal differentiation, neuronal health, and function) according to the procedures of Agholme, 2010. J. of Alzheimer's Disease. Vol. 20:1p 069-108; and Dyberg et al., 2017. PNAS Vol 114 (32), E6603-E6612.
Undifferentiated SH-SY5Y cells were seeded into 96 well clear bottom plates in media containing 0.1% FBS. A serum-free base media was utilized as recommended by the supplier for SH-SY5Y cells (Sigma, Cat #94030304-1VL). Twenty-four hours after seeding cells, a 3× stock solution of ApoTf, final concentrations indicated on the x-axis, in serum free base media was added to the cells. ApoTf was obtained and purified from pooled human plasma and dosed at a final concentration of 0.2 mg/mL.
Cells were allowed to differentiate for 6 days. Neurite growth was assessed by imaging and image analysis. At the time of analysis, a 10× solution of Tubulin Tracker (Molecular Probes, T34075) and Hoechst 33342 (Molecular Probes #H3570) nuclear stain was prepared.
Briefly, Tubulin Tracker dissolved in DMSO was diluted 1:1 with Pluronic F-127 and further diluted into HBSS to generate a 10× solution. Hoechst 33342 was added to the HBSS-Tubulin Tracker solution at 10 μg/mL to generate a 10× nuclear stain. The 10× staining solution (10 μL) was added directly to treated assay wells and incubated at 37° C. for 30 minutes. Following incubation, 110 μL of 0.4% Trypan Blue was added directly to assay wells and imaged on a Molecular Devices Nano imaging instrument. Nine images/well were acquired in the blue (Nuclei) and green (Tubulin) fluorescent channels for each image.
After obtaining images, the MetaExpress Neurite Outgrowth analysis module (Molecular Devices) was used to identify cells, cell bodies, and quantify neurites. The total number of neurite branches were divided by the total number of cells imaged to account for different numbers of cells in each test well. The Outgrowth Fold Change was determined by setting the untreated control cells to a value of 1 with all other treatments shown relative to untreated control.
Undifferentiated SH-SY5Y cells were seeded and treated as described in Example 1. Neurite growth was assessed by imaging and image analysis. At the time of analysis, a 10× solution of Tubulin Tracker (Molecular Probes, T34075) and Hoechst 33342 (Molecular Probes #H3570) nuclear stain was prepared. Briefly, Tubulin Tracker dissolved in DMSO was diluted 1:1 with Pluronic F-127 and further diluted into HBSS to generate a 10× solution. Hoechst 33342 was added to the HBSS-Tubulin Tracker solution at 10 μg/mL to generate at 10× nuclear stain. The 10× staining solution (10 μL) was added directly to treated assay wells and incubated at 37° C. for 30 minutes. Following incubation, 110 μL of 0.4% Trypan Blue was added directly to assay wells and imaged on a Molecular Devices Nano imaging instrument. Nine images/well were acquired in the blue (Nuclei) and green (Tubulin) fluorescent channels for each image. After obtaining images, the MetaExpress Neurite Outgrowth analysis module (Molecular Devices) was used to identify cell bodies and quantify neurites. The total number of neurite branches were divided by the total number of cells imaged to account for different numbers of cells. The Outgrowth Fold Change was determined by setting the untreated control to a value of 1 with all other treatments shown relative to untreated control. ApoTf was obtained and purified from pooled human plasma and dosed at a final concentration of 0.2 mg/mL. […]

HIF-1α = details: cited from earlier work
[1] = Iron saturation by ICP-AES; type: physicochemical
Source text: The skilled person will appreciate that transferrin iron saturation levels can be readily determined without undue burden by quantifying the total iron levels in a sample having a known transferrin concentration. The total iron levels in sample can be measured by any one of a number of methods know by those of skill in the art. Suitable examples include: • Colorimetric assays—Iron is quantitated by measuring the intensity of the violet complex formed in the reaction between ferrozine and Fe^2+ in acetate buffer at 562 nm. Thiourea or other chemicals can be added to complex contaminant metals such Cu^2+, which can also bind with ferrozine and yield falsely elevated iron values. See Ceriotti et al., Improved direct specific determination of serum iron and total iron-binding capacity Clin Chem. 1980, 26(2), 327-31, the contents of which are incorporated herein by reference. • Inductively Coupled Plasma Atomic Emission Spectroscopy (ICP-AES)—is an emission spectroscopy technique that quantifies the mass percentage of metals in a sample. ICP-AES is based on the excitation of metal atoms/ions in the sample using a plasma (an ionized gas consisting of positive ions and free electrons) and analyzing the emission wavelength of the electromagnetic radiation, which is typical of that particular metal. Even though the technique is a standard analytical technique within common general knowledge of the skilled person, further information on ICP-AES can be found in Manley et al., Simultaneous Cu-, Fe-, and Zn-specific detection of metalloproteins contained in rabbit plasma by size-exclusion chromatography-inductively coupled plasma atomic emission spectroscopy. J Biol Inorg Chem. 2009, 14, 61-74, the contents of which are incorporated herein by reference.
The preferred method of determining the iron content of a sample for the purposes of the therapeutic method of the present invention is ICP-AES. The iron saturation of transferrin is then calculated based on the transferrin protein concentration, total iron content of the sample, and the fact that wild type transferrin has two iron-binding sites. Wild type human transferrin (molecular weight 79,750) can bind two iron atoms such that a sample containing 1 g of transferrin would be 100% saturated by 1.4 mg of iron.
Protein purity was determined by SDS-PAGE. Iron saturation levels were determined using ICP-AES in accordance with the procedures outlined in Manley et al., J Biol Inorg Chem (2009) 14:61-74, the contents of which are incorporated herein by reference.

Compound: CC(=O)N(O)CCCCCNC(=O)CCC(=O)N(O)CCCCCNC(=O)CCC(=O)N(O)CCCCCN [DFO, Deferoxamine mesylate, reference compound]
- neurite outgrowth / differentiation versus concentration (SH-SY5Y cells; FIG. 3A, DFO versus ApoTf): little neurite formation beyond that concentration

Compound: O=C(O)CNC(=O)c1c(O)c2ccccc2n(Cc2ccccc2)c1=O [IOX2, N-[[1,2-Dihydro-4-hydroxy-2-oxo-1-(phenylmethyl)-3-quinolinyl]carbonyl]glycine, reference compound]
- concentration inducing up-regulation of HIF-1α (HIF-1α; undifferentiated SH-SY5Y): 1 µM
- neurite outgrowth or differentiation (SH-SY5Y cells): no neurite outgrowth or differentiation was observed
- neurite outgrowth or differentiation (SH-SY5Y cells; 4 μM): no effect was observable

Compound: C[C@@H](N)[C@H]1CC[C@H](C(=O)Nc2ccncc2)CC1.Cl.Cl [Y-27632, trans-4-[(1R)-1-Aminoethyl]-N-4-pyridinylcyclohexanecarboxamide dihydrochloride, reference compound]
- neurogenic effect, alone (SH-SY5Y cells; FIG. 8, 50 μM): strongly neurogenic

Compound: ApoTransferrin A: ApoTf preparation, Grifols - prepared in house
- Iron Saturation (%) [1]: 0.27%

Compound: ApoTransferrin B: ApoTf preparation, Grifols - prepared in house
- Iron Saturation (%) [1]: 0.59%

Compound: ApoTransferrin C: ApoTf preparation, Grifols - prepared in house
- Iron Saturation (%) [1]: 0.24%

Compound: HoloTransferrin: the iron-saturated form of transferrin, purified from pooled human plasma
- HIF-1α production (HIF-1α; reported in US2016008437): can induce HIF-1α production
- neurogenesis / differentiation of SH-SY5Y (SH-SY5Y cells; FIG. 4, proteins at 0.2 mg/mL, listed as HoloTf): unable to induce differentiation; also recorded: lack of neurogenesis
- Iron Saturation (%) [1]: 100%

Compound: recombinant ApoTf: recombinant wild-type human transferrin, SEQ ID NO: 1, expressed in 293-6E cells
- neurogenesis (neurite outgrowth) of SH-SY5Y (SH-SY5Y cells; FIG. 3B, proteins at 0.2 mg/mL): did induce neurogenesis

— US20230265167A1, “COMPOSITIONS HAVING NEUROREGENERATIVE APPLICATIONS” (GRIFOLS WORLDWIDE OPERATIONS LIMITED, priority 2020, published 2023)
